This note sets out measurements from PubChem BioAssay AID1963840 (Molecular Pharmacology Branch, DTP, NCI, 2024).
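Further: spheroids exposed to compounds for seven days; 100% = DMSO vehicle control viability.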

One assay relates to 695427-040-R-J1-PDC complex spheroid viability. As to the kind of experiment: Anticancer human tumor 695427-040-R-J1-PDC patient-derived colon adenocarcinoma cell line growth inhibition [POLQ]. As to conditions: second compound 10 µM; first compound 0.0316 µM; stronger effect = lower value. An outline of the steps:
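Three-cell-type spheroids modelling solid tumor plus stroma served as the readout system; POL inhibitors were tested individually and in combination, concentration ranges set by clinical Cmax where known.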
One may read the viability, T/C as the ratio of treated to control. Take `CCc1cc2c(N3CCc4c(cc(Cn5ccnc5)cc4-c4cn(C)nc4C(F)(F)F)C3=O)ccnc2c(OC)n1` + Nc1ccc(C#CCN(C(=O)Cc2ncc(C(F)(F)F)cc2C(F)(F)F)c2ccc(F)cc2)nn1: the viability, T/C is 101%.
Still for that read-out and setting: then `COc1cc2cc(C(=O)CCC(=O)O)sc2cc1OC` + Nc1ccc(C#CCN(C(=O)Cc2ncc(C(F)(F)F)cc2C(F)(F)F)c2ccc(F)cc2)nn1, with 105%.

Still in this assay, the particulars now being: second compound 10 µM; first compound 0.1 µM; stronger effect = lower value.
Take `C=CC(=O)N1CCN(c2nc(=O)n(-c3c(C)ccnc3C(C)C)c3nc(-c4c(O)cccc4F)c(F)cc23)C(C)C1` (configuration not stated) + Nc1ccc(C#CCN(C(=O)Cc2ncc(C(F)(F)F)cc2C(F)(F)F)c2ccc(F)cc2)nn1: the viability, T/C was 84.4%.
Still for that read-out and setting: then `CC(C)n1c(=O)n(C)c2cnc3cc(F)c(-c4ccc(OCCCN5CCCCC5)nc4)cc3c21` + Nc1ccc(C#CCN(C(=O)Cc2ncc(C(F)(F)F)cc2C(F)(F)F)c2ccc(F)cc2)nn1, with 90.1%; and `CCc1cc2c(N3CCc4c(cc(Cn5ccnc5)cc4-c4cn(C)nc4C(F)(F)F)C3=O)cc(C)nc2c(OC)n1` + Nc1ccc(C#CCN(C(=O)Cc2ncc(C(F)(F)F)cc2C(F)(F)F)c2ccc(F)cc2)nn1, with 94.6%.
The same measure, in the same setting: with `CCc1cc2c(N3CCc4c(cc(Cn5ccnc5)cc4-c4cn(C)nc4C(F)(F)F)C3=O)ccnc2c(OC)n1` + Nc1ccc(C#CCN(C(=O)Cc2ncc(C(F)(F)F)cc2C(F)(F)F)c2ccc(F)cc2)nn1 the figure was 93.2%; with `COc1cc2cc(C(=O)CCC(=O)O)sc2cc1OC` + Nc1ccc(C#CCN(C(=O)Cc2ncc(C(F)(F)F)cc2C(F)(F)F)c2ccc(F)cc2)nn1, 105%.

The same assay, now with this note: second compound 10 µM; first compound 0.316 µM; stronger effect = lower value.
Consider `C=CC(=O)N1CCN(c2nc(=O)n(-c3c(C)ccnc3C(C)C)c3nc(-c4c(O)cccc4F)c(F)cc23)C(C)C1` (configuration not stated) + Nc1ccc(C#CCN(C(=O)Cc2ncc(C(F)(F)F)cc2C(F)(F)F)c2ccc(F)cc2)nn1, for which the viability, T/C was 102%.
The same measure, in the same setting: then `CC(C)n1c(=O)n(C)c2cnc3cc(F)c(-c4ccc(OCCCN5CCCCC5)nc4)cc3c21` + Nc1ccc(C#CCN(C(=O)Cc2ncc(C(F)(F)F)cc2C(F)(F)F)c2ccc(F)cc2)nn1, with 101%; and `CCc1cc2c(N3CCc4c(cc(Cn5ccnc5)cc4-c4cn(C)nc4C(F)(F)F)C3=O)cc(C)nc2c(OC)n1` + Nc1ccc(C#CCN(C(=O)Cc2ncc(C(F)(F)F)cc2C(F)(F)F)c2ccc(F)cc2)nn1, with 95.6%.
Same read-out and setting: with `CCc1cc2c(N3CCc4c(cc(Cn5ccnc5)cc4-c4cn(C)nc4C(F)(F)F)C3=O)ccnc2c(OC)n1` + Nc1ccc(C#CCN(C(=O)Cc2ncc(C(F)(F)F)cc2C(F)(F)F)c2ccc(F)cc2)nn1 the figure was 101%.
Same read-out and setting: then `COc1cc2cc(C(=O)CCC(=O)O)sc2cc1OC` + Nc1ccc(C#CCN(C(=O)Cc2ncc(C(F)(F)F)cc2C(F)(F)F)c2ccc(F)cc2)nn1, with 98.7%.

Still in this assay, the particulars now being: second compound 10 µM; first compound 1 µM; stronger effect = lower value.
For `C=CC(=O)N1CCN(c2nc(=O)n(-c3c(C)ccnc3C(C)C)c3nc(-c4c(O)cccc4F)c(F)cc23)C(C)C1` (configuration not stated) + Nc1ccc(C#CCN(C(=O)Cc2ncc(C(F)(F)F)cc2C(F)(F)F)c2ccc(F)cc2)nn1, the viability, T/C is 96.3%.
Still for that read-out and setting: with `CC(C)n1c(=O)n(C)c2cnc3cc(F)c(-c4ccc(OCCCN5CCCCC5)nc4)cc3c21` + Nc1ccc(C#CCN(C(=O)Cc2ncc(C(F)(F)F)cc2C(F)(F)F)c2ccc(F)cc2)nn1 the figure was 108%; with `CCc1cc2c(N3CCc4c(cc(Cn5ccnc5)cc4-c4cn(C)nc4C(F)(F)F)C3=O)cc(C)nc2c(OC)n1` + Nc1ccc(C#CCN(C(=O)Cc2ncc(C(F)(F)F)cc2C(F)(F)F)c2ccc(F)cc2)nn1, 91.8%.
As for `CCc1cc2c(N3CCc4c(cc(Cn5ccnc5)cc4-c4cn(C)nc4C(F)(F)F)C3=O)ccnc2c(OC)n1` + Nc1ccc(C#CCN(C(=O)Cc2ncc(C(F)(F)F)cc2C(F)(F)F)c2ccc(F)cc2)nn1, the viability, T/C is 110%.
On the same count and under the same terms, then `COc1cc2cc(C(=O)CCC(=O)O)sc2cc1OC` + Nc1ccc(C#CCN(C(=O)Cc2ncc(C(F)(F)F)cc2C(F)(F)F)c2ccc(F)cc2)nn1, with 87.4%.

The same assay, now with this note: second compound 10 µM; first compound 3.16 µM; stronger effect = lower value.
In the case of `C=CC(=O)N1CCN(c2nc(=O)n(-c3c(C)ccnc3C(C)C)c3nc(-c4c(O)cccc4F)c(F)cc23)C(C)C1` (configuration not stated) + Nc1ccc(C#CCN(C(=O)Cc2ncc(C(F)(F)F)cc2C(F)(F)F)c2ccc(F)cc2)nn1, the viability, T/C is 121%.
Still for that read-out and setting: then `CC(C)n1c(=O)n(C)c2cnc3cc(F)c(-c4ccc(OCCCN5CCCCC5)nc4)cc3c21` + Nc1ccc(C#CCN(C(=O)Cc2ncc(C(F)(F)F)cc2C(F)(F)F)c2ccc(F)cc2)nn1, with 95.4%.
Regarding `CCc1cc2c(N3CCc4c(cc(Cn5ccnc5)cc4-c4cn(C)nc4C(F)(F)F)C3=O)cc(C)nc2c(OC)n1` + Nc1ccc(C#CCN(C(=O)Cc2ncc(C(F)(F)F)cc2C(F)(F)F)c2ccc(F)cc2)nn1, the viability, T/C was 98.7%.
The same measure, in the same setting: with `CCc1cc2c(N3CCc4c(cc(Cn5ccnc5)cc4-c4cn(C)nc4C(F)(F)F)C3=O)ccnc2c(OC)n1` + Nc1ccc(C#CCN(C(=O)Cc2ncc(C(F)(F)F)cc2C(F)(F)F)c2ccc(F)cc2)nn1 the figure was 97.7%; with `COc1cc2cc(C(=O)CCC(=O)O)sc2cc1OC` + Nc1ccc(C#CCN(C(=O)Cc2ncc(C(F)(F)F)cc2C(F)(F)F)c2ccc(F)cc2)nn1, 102%.

Staying with this assay, now noted: second compound 10 µM; first compound 10 µM; stronger effect = lower value.
On to `C=CC(=O)N1CCN(c2nc(=O)n(-c3c(C)ccnc3C(C)C)c3nc(-c4c(O)cccc4F)c(F)cc23)C(C)C1` (configuration not stated) + Nc1ccc(C#CCN(C(=O)Cc2ncc(C(F)(F)F)cc2C(F)(F)F)c2ccc(F)cc2)nn1, for which the viability, T/C is 97.6%.
Same read-out and setting: with `CC(C)n1c(=O)n(C)c2cnc3cc(F)c(-c4ccc(OCCCN5CCCCC5)nc4)cc3c21` + Nc1ccc(C#CCN(C(=O)Cc2ncc(C(F)(F)F)cc2C(F)(F)F)c2ccc(F)cc2)nn1 the figure was 88%; with `CCc1cc2c(N3CCc4c(cc(Cn5ccnc5)cc4-c4cn(C)nc4C(F)(F)F)C3=O)cc(C)nc2c(OC)n1` + Nc1ccc(C#CCN(C(=O)Cc2ncc(C(F)(F)F)cc2C(F)(F)F)c2ccc(F)cc2)nn1, 97.9%.
On the same count and under the same terms, then `CCc1cc2c(N3CCc4c(cc(Cn5ccnc5)cc4-c4cn(C)nc4C(F)(F)F)C3=O)ccnc2c(OC)n1` + Nc1ccc(C#CCN(C(=O)Cc2ncc(C(F)(F)F)cc2C(F)(F)F)c2ccc(F)cc2)nn1, with 96.7%.
Turning to `COc1cc2cc(C(=O)CCC(=O)O)sc2cc1OC` + Nc1ccc(C#CCN(C(=O)Cc2ncc(C(F)(F)F)cc2C(F)(F)F)c2ccc(F)cc2)nn1, the viability, T/C is 102%.
